Laboratory results as given in doi:10.1101/2024.03.18.584035v1 (biorxiv, 2024).

Molecular target: T1, olTRPM2 (Oryzias latipes, UniProt H2MNZ1)
T1 sequence (H2MNZ1 1-1431): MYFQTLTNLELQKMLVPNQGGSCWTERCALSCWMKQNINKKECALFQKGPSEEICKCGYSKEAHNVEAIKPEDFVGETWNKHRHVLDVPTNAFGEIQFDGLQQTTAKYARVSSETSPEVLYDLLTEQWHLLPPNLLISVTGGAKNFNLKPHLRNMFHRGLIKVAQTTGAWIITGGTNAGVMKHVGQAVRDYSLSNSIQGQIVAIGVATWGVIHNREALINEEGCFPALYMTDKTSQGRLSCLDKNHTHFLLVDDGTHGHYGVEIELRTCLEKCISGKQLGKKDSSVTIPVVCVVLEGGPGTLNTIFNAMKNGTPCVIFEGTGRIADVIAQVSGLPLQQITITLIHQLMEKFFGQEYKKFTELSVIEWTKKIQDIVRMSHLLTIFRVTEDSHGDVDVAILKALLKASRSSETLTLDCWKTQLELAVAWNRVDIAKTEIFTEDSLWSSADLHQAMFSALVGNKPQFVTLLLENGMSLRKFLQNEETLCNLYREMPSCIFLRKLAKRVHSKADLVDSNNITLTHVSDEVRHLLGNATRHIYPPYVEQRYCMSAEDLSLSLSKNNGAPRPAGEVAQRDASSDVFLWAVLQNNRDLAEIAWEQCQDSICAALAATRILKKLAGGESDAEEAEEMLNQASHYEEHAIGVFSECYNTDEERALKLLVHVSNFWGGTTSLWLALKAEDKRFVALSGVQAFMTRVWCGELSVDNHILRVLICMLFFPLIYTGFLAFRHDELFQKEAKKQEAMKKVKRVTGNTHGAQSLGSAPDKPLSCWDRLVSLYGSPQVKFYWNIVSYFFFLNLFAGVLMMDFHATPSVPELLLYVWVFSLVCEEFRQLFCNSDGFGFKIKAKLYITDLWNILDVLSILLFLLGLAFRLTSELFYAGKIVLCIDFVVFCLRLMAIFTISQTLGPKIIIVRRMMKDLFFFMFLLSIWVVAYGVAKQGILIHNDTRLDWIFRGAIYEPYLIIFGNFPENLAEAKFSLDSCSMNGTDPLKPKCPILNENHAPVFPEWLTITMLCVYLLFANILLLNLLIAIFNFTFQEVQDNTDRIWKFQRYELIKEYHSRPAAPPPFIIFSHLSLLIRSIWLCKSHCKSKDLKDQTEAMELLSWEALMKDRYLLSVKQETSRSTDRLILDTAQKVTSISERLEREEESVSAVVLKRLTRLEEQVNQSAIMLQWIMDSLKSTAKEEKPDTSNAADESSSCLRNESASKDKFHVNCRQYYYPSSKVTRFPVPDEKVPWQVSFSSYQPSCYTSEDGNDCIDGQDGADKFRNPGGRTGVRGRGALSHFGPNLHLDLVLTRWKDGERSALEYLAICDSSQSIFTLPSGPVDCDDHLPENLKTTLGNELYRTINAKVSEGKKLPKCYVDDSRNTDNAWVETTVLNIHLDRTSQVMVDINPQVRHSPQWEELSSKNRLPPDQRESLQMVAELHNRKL
Test: whole-cell patch clamp, HEK293T
Format: cell-based
Conditions: intracellular ADPR; room temperature; pH 7.4; -80 mV; agonist

Nc1ncnc2c1ncn2[C@@H]1O[C@H](COP(=O)(O)OP(=O)(O)OC[C@H]2OC(O)[C@H](O)[C@@H]2O)[C@@H](O)[C@H]1O (stereo partly shown) [ADPR, adenosine diphosphate ribose]
EC50: 1.1 ± 0.8 µM
